Source: patent US11207320B2, “Compositions and methods for cancer expressing PDE3A or SLFN12” (The Broad Institute, Inc., priority 2015, dated 2021)

How the values were obtained:
PDE3A(677-1141) = molecular target: T1, PDE3A(677-1141) (Homo sapiens, UniProt Q14432); assay: Differential scanning fluorimetry (DSF) binding; conditions: 5 μM protein, 100 μM compound
T1 construct: purified PDE3A catalytic domain, PDE3A(677-1141)
Procedure: Binding buffer: 20 mM Hepes pH 7.4, 100 μM TCEP, 1 mM MgCl2, 150 mM NaCl.

PDE3A and SLFN12 = molecular target: T2, PDE3A and SLFN12 (Homo sapiens, UniProt Q14432); assay: Validation of DNMDP-induced PDE3A protein interactions using immunoprecipitation and immunoblotting; format: cell-based; conditions: FIG. 20, affinity reagents, immunoblot
T2 construct: Endogenous PDE3A was immunoprecipitated; host or cells: HeLa
T2 sequence (Q14432 whole entry): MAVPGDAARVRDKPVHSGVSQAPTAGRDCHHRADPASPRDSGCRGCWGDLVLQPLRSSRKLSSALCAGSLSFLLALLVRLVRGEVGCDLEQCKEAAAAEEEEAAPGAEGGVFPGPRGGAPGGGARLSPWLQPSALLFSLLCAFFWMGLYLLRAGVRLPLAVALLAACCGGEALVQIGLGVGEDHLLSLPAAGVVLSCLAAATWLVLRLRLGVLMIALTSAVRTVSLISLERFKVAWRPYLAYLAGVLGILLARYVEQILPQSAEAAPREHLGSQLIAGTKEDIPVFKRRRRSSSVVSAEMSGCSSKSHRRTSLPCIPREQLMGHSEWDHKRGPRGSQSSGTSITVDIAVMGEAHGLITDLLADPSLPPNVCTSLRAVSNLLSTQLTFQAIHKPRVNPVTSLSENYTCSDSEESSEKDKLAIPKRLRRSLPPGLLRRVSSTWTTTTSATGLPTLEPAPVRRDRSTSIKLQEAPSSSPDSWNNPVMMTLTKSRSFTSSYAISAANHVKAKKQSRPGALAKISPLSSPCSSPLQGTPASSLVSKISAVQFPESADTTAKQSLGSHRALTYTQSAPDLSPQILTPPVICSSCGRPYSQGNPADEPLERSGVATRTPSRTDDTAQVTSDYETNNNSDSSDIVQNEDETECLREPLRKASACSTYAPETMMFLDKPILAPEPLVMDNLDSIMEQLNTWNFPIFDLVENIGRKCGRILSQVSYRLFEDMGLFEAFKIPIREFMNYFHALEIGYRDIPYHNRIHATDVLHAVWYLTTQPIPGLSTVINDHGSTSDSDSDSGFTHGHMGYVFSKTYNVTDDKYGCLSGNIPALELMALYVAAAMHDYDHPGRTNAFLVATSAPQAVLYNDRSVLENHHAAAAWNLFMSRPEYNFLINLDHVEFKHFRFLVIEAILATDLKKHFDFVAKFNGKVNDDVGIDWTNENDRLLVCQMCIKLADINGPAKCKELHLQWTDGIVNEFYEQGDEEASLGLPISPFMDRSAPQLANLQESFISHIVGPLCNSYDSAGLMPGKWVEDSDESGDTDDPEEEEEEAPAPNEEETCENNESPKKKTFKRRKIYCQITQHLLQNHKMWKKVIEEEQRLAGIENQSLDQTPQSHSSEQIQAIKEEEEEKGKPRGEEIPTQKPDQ
T2 sequence (Q8IYM2 whole entry partner): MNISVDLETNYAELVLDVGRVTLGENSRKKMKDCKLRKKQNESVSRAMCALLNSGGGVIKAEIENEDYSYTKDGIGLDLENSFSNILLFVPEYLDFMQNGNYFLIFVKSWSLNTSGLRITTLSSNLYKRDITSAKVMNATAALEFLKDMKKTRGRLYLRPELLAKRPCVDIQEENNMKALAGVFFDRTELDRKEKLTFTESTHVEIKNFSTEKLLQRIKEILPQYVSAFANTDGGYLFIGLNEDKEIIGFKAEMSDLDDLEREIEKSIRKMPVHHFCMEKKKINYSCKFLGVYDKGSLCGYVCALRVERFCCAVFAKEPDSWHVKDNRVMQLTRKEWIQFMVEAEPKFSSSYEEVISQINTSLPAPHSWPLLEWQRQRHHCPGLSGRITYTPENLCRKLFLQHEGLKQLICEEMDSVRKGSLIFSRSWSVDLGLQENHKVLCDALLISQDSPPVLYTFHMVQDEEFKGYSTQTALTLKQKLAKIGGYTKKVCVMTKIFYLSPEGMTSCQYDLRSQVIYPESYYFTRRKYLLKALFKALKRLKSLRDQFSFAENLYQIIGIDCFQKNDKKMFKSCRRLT
Procedure: FIG. 19 is an immunoblot showing that DNMDP induces interaction between PDE3A and SIRT7 and SLFN12 in HeLa cells. HeLa cells were transfected with indicated plasmids and treated with indicated compounds with a final concentration of 10 μM for four hours. Endogenous PDE3A was immunoprecipitated and immunoblotted for V5 to identify novel interaction with SIRT7 and SLFN12 (upper two panels). Immunoprecipitate input was immunoblotted for PDE3A and V5 (lower two panels). V5-SLFN12 was undetectable in whole cell lysate.
FIG. 20 is an immunoblot showing confirmation of mass spectrometric results herein using affinity reagents.
HeLa cells were transfected with ORF overexpression constructs expressing V5-tagged SIRT7, V5-tagged SLFN12, or V5-tagged GFP. ORF expression constructs were obtained from the TRC (clone IDs: TRCN0000468231, TRCN0000476272, ccsbBroad304_99997). At 72 hours post transfection, cells were treated with 10 μM DNMDP or trequinsin for 4 hours followed by lysis using the ModRipa lysis buffer and immunoprecipitation of PDE3A. For each condition, 2 mg total protein lysate was incubated with 1 μg of anti-PDE3A antibody at 4° C. overnight, after which 7.5 μl each of Protein A- and Protein G-Dynabeads (Life Technologies 10001D and 10003D) were added and incubated for another 1 hour. Beads were washed and bound proteins were eluted with 30 μl of LDS PAGE gel loading buffer. Input (˜60 μg total protein lysate) and IP products were resolved on 4-12% Tris-Glycine PAGE gels and immunoblotted with an anti-V5 antibody (Life Technologies R96205, 1:5000), the Bethyl anti-PDE3A antibody (1:1000), and secondary antibodies from LiCOR Biosciences (Cat.#926-32210 and 926068021, each at 1:10,000). Blots were washed and imaged using a LiCOR Odyssey infrared imager.

HeLa cells [1] = format: cell-based; conditions: 48 hours; for rescue of DNMDP cytotoxicity / competition with DNMDP: dose-response up to 10 μM, co-treated with DNMDP; for rescue of cell death induced by DNMDP, rank in bioactives screen: 20 μM compound + 30 nM DNMDP, 1600 compounds
Procedure: HeLa cells were co-treated with 30 nM DNMDP (the EC70 concentration) and 20 μM of each bioactive compound. Cell viability after 48-hour treatment was assessed by ATP consumption as described earlier.
1000 HeLa cells were plated in a 384-well plate in 40 μl of DMEM supplemented with 10% Fetal Bovine Serum and 1% Pen/Strep. 24 hours after plating, a compound-library of 1600 bioactive molecules (Pharmacon) was added at a concentration of 20 μM. In parallel to bioactive compound incubation, DNMDP was added to a final concentration of 30 nM and incubated for 48 hours. Cell viability was assessed as described in Compound library screening in NCI-H1734 and A549 cell lines.

HeLa cells [2] = assay: DNMDP cytotoxicity after targeting PDE3A locus using CRISPR; format: cell-based; conditions: HeLa infected with Cas9 and sgRNAs against PDE3A
Procedure: FIG. 11A is a Western blot. HeLa cells were infected with Cas9 and indicated guide RNAs (sgRNA) against PDE3A. Western blots were probed for PDE3A at indicated time points. FIG. 11B is a bar graph showing percent rescue of HeLa cells that were infected with indicated sgRNAs for two weeks and treated with 1 μM of 6-(4-(diethylamino)-3-nitrophenyl)-5-methyl-4,5-dihydropyridazin-3(2H)-one (DNMDP) for 48 hours. Percent rescue was normalized to the Cas9-only control. FIG. 11C is a plot showing viability of cells infected with indicated sgRNAs and treated with various concentrations of 6-(4-(diethylamino)-3-nitrophenyl)-5-methyl-4,5-dihydropyridazin-3(2H)-one (DNMDP).
Based on the observations that DNMDP-sensitive cells expressed high levels of PDE3A, and that DNMDP competed with non-cytotoxic inhibitors for PDE3A binding, it was hypothesized that DNMDP mediated its cytotoxic phenotype through the interaction with PDE3A and that PDE3A abundance was a direct cellular determinant of DNMDP sensitivity. To validate this hypothesis, the effect of reducing levels of PDE3A on the response to DNMDP was tested. […] In an independent approach using an siRNA smart-pool containing four different siRNAs targeting PDE3A, PDE3A expression was reduced in HeLa cell line with a maximum efficiency of 70% between 24 and 72 hours after transfection. […]

HeLa cells [3] = assay: Compound sensitivity testing in cell lines (48 h viability); format: cell-based; conditions: HeLa
Procedure: 1500 NCI-H1734 or 1000 A549 cells were plated in a 384-well plate in 40 μl of RPMI supplemented with 10% Fetal Bovine Serum and 1% Pen/Strep. 24 hours after plating, a compound-library of 1924 small molecules was added at a concentration of 10 μM. Staurosporine was used a positive control for cytotoxicity at a concentration of 10 μM, and DMSO was used a negative control at a concentration of 1%. All compounds were incubated for 48 hours with indicated small molecules. After 48 hours, 384-well plates were removed from the incubator and allowed to cool to room temperature for 20 minutes. Cell viability was assessed by adding 40 μl of a 25% CELLTITERGLO® (Promega) in PBS with a THERMO COMBI™ or multichannel-pipette and incubated for 10 minutes. The luminescence signal was read using a Perkin-Elmer EnVision. Viability percentage was calculated by normalizing to DMSO controls.
1000 HeLa (DMEM), 1000 A549 (RPMI), 500 MCF-7 (DMEM), 4000 PC3 (F12-K), 1000 NCI-H2122 (RPMI) or 1500 NCI-H1563 (RPMI) cells were plated in a 384-well plate in 40 μl of corresponding growth media supplemented with 10% Fetal Bovine Serum. 24 hours after plating, indicated compounds were added at indicated concentrations and incubated for 48 hours. Cell viability was assessed as described in Compound library screening in NCI-H1734 and A549 cell lines.

PDE3A = PDE3A (Homo sapiens, UniProt Q14432); assay: Linker-affinity purification of molecular target of DNMDP and immunoblotting; format: binding; set-up: Immunoprecipitation of endogenous PDE3A in HeLa cells; endogenous in cells; host or cells: HeLa; conditions: HeLa cell lysate, competitor 10 μM, immunoblot for PDE3A
Sequence of PDE3A (Q14432 whole entry): as the sequence (Q14432 whole entry) above
Procedure: To identify the molecular target of DNMDP, an affinity purification was performed using an (R)-des-nitro-DNMDP solid-phase tethered linker analogue (FIG. 10A) incubated with HeLa cell lysate. […] It was competed for the molecular target by adding either an excess of trequinsin or separate enantiomers of DNMDP, where only the (R)-enantiomer was cytotoxic. […] Binding of PDE3A to the linker analogue was blocked by both trequinsin and (R)-DNMDP, but not by the non-cytotoxic enantiomer (S)-[…]. 9C). Thus both trequinsin and (R)-DNMDP prevented the binding of PDE3A to the tethered DNMDP analogue, and it was concluded that both molecules bind PDE3A directly. HeLa cells were washed with ice-cold PBS before lysed with NP-40 lysis buffer (150 mM NaCl, 10% glycerol, 50 mM Tris-Cl pH 8.0, 50 mM MgCl2, 1% NP-40) supplemented with EDTA-free protease inhibitors (Roche) and phosphatase inhibitor mixtures I and II (Calbiochem). […] Samples were washed three times with lysis buffer containing corresponding compound concentrations of 10 μM. Proteins bound to Affi-Gel 102 resin were reduced, denatured, and separated using Tris-Glycine gels (Novex) and transferred to nitrocellulose membranes using the iBlot transfer system (Novex). Membranes were incubated overnight at 4° C. with primary antibodies against PDE3A (1:1000, Bethyl). […]

T1 sequence (Q14432 677-1141): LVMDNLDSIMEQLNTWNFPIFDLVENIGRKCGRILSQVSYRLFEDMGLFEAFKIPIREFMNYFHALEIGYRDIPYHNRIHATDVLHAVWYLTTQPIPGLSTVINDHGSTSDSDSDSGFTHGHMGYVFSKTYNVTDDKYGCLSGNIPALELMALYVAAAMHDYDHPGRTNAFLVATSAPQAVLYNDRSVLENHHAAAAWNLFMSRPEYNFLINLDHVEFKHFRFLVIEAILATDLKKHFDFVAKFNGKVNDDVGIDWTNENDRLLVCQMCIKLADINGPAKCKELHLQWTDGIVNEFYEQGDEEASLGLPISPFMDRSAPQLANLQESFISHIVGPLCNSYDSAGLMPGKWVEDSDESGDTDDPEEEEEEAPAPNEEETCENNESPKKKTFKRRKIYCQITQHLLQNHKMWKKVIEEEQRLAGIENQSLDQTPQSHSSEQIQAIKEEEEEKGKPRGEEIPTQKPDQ

SMILES: O=C1CN2Cc3c(ccc(Cl)c3Cl)N=C2N1 [anagrelide, 6,7-dichloro-1,5-dihydroimidazo (2,1-b)quinazolin-2(3H)-one]
- Tm (° C.) (PDE3A(677-1141)): 56.6 ± 0.0 °C
- ΔTm at 100 µM (PDE3A(677-1141)): 4.2 °C
- PDE3A and SLFN12 complex formation (PDE3A and SLFN12): weakly

SMILES: CCCc1nn(C)c2c(=O)[nH]c(-c3cc(S(=O)(=O)N4CCN(C)CC4)ccc3OCC)nc12 [sildenafil, 1-[4-ethoxy-3-(6,7-dihydro-1-methyl-7-oxo-3-propyl-1H-pyrazolo[4,3-d]pyrimidin-5-yl)phenylsulfonyl]-4-methylpiperazine]
- rescue of DNMDP cytotoxicity / competition with DNMDP (HeLa cells [1]): not effective competitors

SMILES: C[C@@H]1CC(=O)NN=C1c1ccc(N2CCOCC2)cc1 [Compound 3]
- rescue of toxicity by PDE3A sgRNA2 and sgRNA3 (HeLa cells [2]): significant rescue of toxicity

SMILES: CCCc1nc(C)c2c(=O)[nH]c(-c3cc(S(=O)(=O)N4CCN(CC)CC4)ccc3OCC)nn12 [vardenafil, 4-[2-ethoxy-5-(4-ethylpiperazin-1-yl)sulfonyl-phenyl]-9-methyl-7-propyl-3,5,6,8-tetrazabicyclo[4.3.0]nona-3,7,9-trien-2-one]
- rescue of DNMDP cytotoxicity / competition with DNMDP (HeLa cells [1]): not effective competitors

SMILES: Cc1[nH]c(=O)c(C#N)cc1-c1ccncc1 [milrinone, 2-methyl-6-oxo-1,6-dihydro-3,4′-bipyridine-5-carbonitrile]
- rescue of cell death induced by DNMDP, rank in bioactives screen (HeLa cells [1]): three most potent compounds
- rescue of DNMDP cytotoxicity / competition with DNMDP (HeLa cells [1]): able to rescue DNMDP cytotoxicity in a dose-dependent manner

SMILES: CCN(CC)c1ccc(C2=NNC(=O)C[C@@H]2C)cc1[N+](=O)[O-] [(S)-DNMDP]
- effect on HeLa cell viability / cytotoxicity (HeLa cells [3]): non-cytotoxic

SMILES: CCN(CCOCCOCCNC(=O)OC(C)(C)C)c1ccc(C2=NNC(=O)C[C@H]2C)cc1 [DNMDP-2L, tert-butyl (R)-(2-(2-(2-(ethyl(4-(4-methyl-6-oxo-1,4,5,6-tetrahydropyridazin-3-yl)phenyl)amino)ethoxy)ethoxy)ethyl)carbamate]
- rescue of DNMDP cytotoxicity / competition with DNMDP (HeLa cells [1]): same DNMDP cytotoxicity rescue phenotype as non-cytotoxic PDE3 inhibitors

SMILES: CN(C(=O)CCCOc1ccc2[nH]c(=O)ccc2c1)C1CCCCC1 [cilostamide]
- rescue of DNMDP cytotoxicity / competition with DNMDP (HeLa cells [1]): able to rescue DNMDP cytotoxicity in a dose-dependent manner

SMILES: CCN(CC)c1ccc(C2=NNC(=O)C[C@H]2C)cc1[N+](=O)[O-] [(R)-DNMDP, (R)-6-(4-(diethylamino)-3-nitrophenyl)-5-methyl-4,5-dihydropyridazin-3(2H)-one]
- blocking of binding of PDE3A to the tethered linker analogue (PDE3A): blocked
- effect on HeLa cell viability / cytotoxicity (HeLa cells [3]): cytotoxic
- fold lower EC50 compared to the (S)-enantiomer (HeLa cells [3]): 500 fold

SMILES: CC(C)C(=O)c1c(C(C)C)nn2ccccc12 [idubulast]
- rescue of DNMDP cytotoxicity / competition with DNMDP (HeLa cells [1]): not effective competitors

SMILES: O=C1CCc2cc(OCCCCc3nnnn3C3CCCCC3)ccc2N1 [cilostazol, 6-[4-(1-cyclohexyl-1H-tetrazol-5-yl)butoxy]-3,4-dihydro-2(1H)-quinolinone]
- rescue of cell death induced by DNMDP, rank in bioactives screen (HeLa cells [1]): three most potent compounds
